Assay results published in ChEMBL document CHEMBL1153768, “New potential AChE inhibitor candidates” (Eur J Med Chem, 2009).

Columns and labels:
[1] = target: Acetylcholinesterase (Electrophorus electricus) (UniProt O42275); test: (§1) Inhibition of Electrophorus electricus AChE
[2] = target: Acetylcholinesterase (Electrophorus electricus, UniProt O42275); test: as §1
[3] = target: Acetylcholinesterase (Electrophorus electricus) (UniProt O42275); test: Inhibition of Electrophorus electricus AChE at 100 uM

Sequence of Acetylcholinesterase (O42275 whole entry): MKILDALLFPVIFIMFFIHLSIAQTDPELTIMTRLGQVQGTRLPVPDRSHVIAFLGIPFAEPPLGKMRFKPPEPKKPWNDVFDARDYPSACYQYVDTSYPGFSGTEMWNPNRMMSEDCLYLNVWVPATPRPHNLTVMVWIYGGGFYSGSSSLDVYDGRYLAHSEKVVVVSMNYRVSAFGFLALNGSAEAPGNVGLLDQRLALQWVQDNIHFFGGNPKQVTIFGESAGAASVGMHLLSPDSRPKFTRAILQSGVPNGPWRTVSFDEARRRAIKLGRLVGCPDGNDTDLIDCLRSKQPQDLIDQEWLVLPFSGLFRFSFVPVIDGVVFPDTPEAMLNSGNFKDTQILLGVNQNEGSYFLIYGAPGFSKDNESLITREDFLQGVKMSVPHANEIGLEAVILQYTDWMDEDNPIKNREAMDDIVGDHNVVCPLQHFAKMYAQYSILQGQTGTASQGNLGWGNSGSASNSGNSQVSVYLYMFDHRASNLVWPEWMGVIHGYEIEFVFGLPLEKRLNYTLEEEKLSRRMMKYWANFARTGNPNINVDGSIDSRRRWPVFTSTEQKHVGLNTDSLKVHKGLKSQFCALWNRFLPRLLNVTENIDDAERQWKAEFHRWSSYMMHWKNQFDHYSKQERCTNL
Sequence of Acetylcholinesterase (Electrophorus electricus) (O42275 24-633 limits assumed): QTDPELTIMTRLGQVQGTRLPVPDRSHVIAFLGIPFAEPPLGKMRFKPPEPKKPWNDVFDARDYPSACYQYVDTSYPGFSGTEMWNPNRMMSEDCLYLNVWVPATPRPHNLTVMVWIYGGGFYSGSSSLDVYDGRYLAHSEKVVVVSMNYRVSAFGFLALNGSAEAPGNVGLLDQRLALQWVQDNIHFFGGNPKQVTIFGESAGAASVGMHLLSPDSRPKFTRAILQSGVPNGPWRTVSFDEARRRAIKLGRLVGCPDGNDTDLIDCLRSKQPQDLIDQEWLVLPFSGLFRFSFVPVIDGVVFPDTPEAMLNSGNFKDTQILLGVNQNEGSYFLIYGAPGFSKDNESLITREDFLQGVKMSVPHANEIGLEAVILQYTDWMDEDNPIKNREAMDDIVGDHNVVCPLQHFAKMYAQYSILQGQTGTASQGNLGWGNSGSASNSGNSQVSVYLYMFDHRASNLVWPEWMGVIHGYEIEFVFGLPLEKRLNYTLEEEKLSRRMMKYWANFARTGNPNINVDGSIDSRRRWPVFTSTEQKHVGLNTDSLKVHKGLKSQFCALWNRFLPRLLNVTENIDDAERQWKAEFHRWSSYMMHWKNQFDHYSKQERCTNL

SMILES | inhibition [1] | IC50 [2] | inhibition [3]
CCCCCCCCCCCCCCC(c1cccc(OC(=O)N(C)C)c1)N(CC)CC (stereo not drawn) | Dose-dependent effect | 251 µM | 
CCCCCCCCCCCCCCC(c1cccc(OC(=O)N(C)C)c1)N(C)Cc1ccccc1 (stereo not drawn) |  |  | 25%
CCCCCCCCCCCCCCC(c1cccc(OC(=O)N(C)C)c1)N1CCCCC1 (stereo not drawn) |  |  | 25%
CCCCCCCCCCCCCCC(c1cccc(OC(=O)N(C)C)c1)N(C)C (stereo not drawn) | Dose-dependent effect | 50 µM | 
CCCCCCCCCCCCCCC(c1cccc(OC(=O)N(C)C)c1)N1CCCC1 (stereo not drawn) | Dose-dependent effect | 84.3 µM | 
